The source of these data is patent US20020164581A1 (priority 2001, published 2002).

Read-outs that look alike come from different tables or passages of the source.

Series [1] deals with bovine aortic endothelial cells (bAECs). To be noted: for protection against paraquat-mediated cytotoxicity, SERM alone: 10 nM-1 μM, 24 h pretreatment (FIG. 4). On the procedure:
Primary cultures of bAECs were established from five female beef cattle (ranging in age from 1 to 2 years old) according to the method of Fenselau and Mello (Cancer Res. 36:3269-3273, 1976). Pooled cells were routinely maintained under humidified air (5% CO2) at 37° C. in Dulbecco's modified medium supplemented with 10% fetal bovine serum (FBS). Cells from the second to the fifth passages were used in these studies.
In the studies in which male and female bAECs were compared, batches of bAECs were independently established from 5 female and 4 male beef cattle (ranging in age from 1 to 2 years old) according to the method of Fenselau and Mello (Cancer Res. 36:3269-3273, 1976). Otherwise, the cells were treated and assessed as described in the paragraph above.
Prior to E2 pretreatment, cells were grown in phenol red-free DMEM supplemented with 10% dextran/charcoal-stripped FBS for at least 1 passage (3-4 days). Phenol red-free Dulbecco's modified medium was used to avoid potential estrogenic interference. Serum steroid deprivation was conducted according to the conditions described by Yeh et al. (Proc. Natl. Acad. Sci. USA 95:5527-5532, 1998). The E2 level in the stripped serum was assayed using an [^125I] 17β-estradiol radioimmunoassay kit (TKE21, Diagnostic Products Corporation, Los Angeles, Calif.). […] The cells grown in E2-free environments were plated onto Falcon 24-well Primariae™ plates at a density of 5×10^4 cells/well. E2 in dimethylsulfoxide (DMSO) was added to each well at final concentrations ranging from 1 nM to 10 μM 3 hours after plating, and the cells were then incubated for 24 hours (a duration commonly used for the studies of the genomic effects of E2) at 37° C. Control cells were treated with a corresponding amount of DMSO (a final concentration 0.05%).
Prior to oxidative challenge, E2-containing media was removed, and the cells were rinsed with PBS twice and re-fed with serum-free fresh medium. Subsequently, paraquat was added to the cells at the indicated doses (0.1-2.0 mM) for 3 hours. The oxidative challenge was terminated by aspiration of the oxidant-containing medium and quickly rinsing the cells twice with PBS. The cells were allowed to recover for 48 hours in medium supplemented with 10% regular FBS to exclude the possibility that different concentrations of E2 interfere with the cellular recovery processes.
Cell survival after oxidative challenge was assessed with a 3-(4,5-dimethylthiazol-2-yl) 2,5 diphenyltetrazolium bromide (MTT) assay in which the mitochondrial dehydrogenase activity of viable cells reduces MTT to a blue formazan product (Carmichael et al. Cancer Res. 47:936-942, 1987). Our prior conditions were employed (Si et al., Endocrine in press, 2001). Briefly, cells were treated with 1/10 volume of MTT solution (5 mg/ml in PBS) and incubated at 37° C. for 2 hours. The supernatant was then removed, and 600 μl of lysis buffer (50% dimethyl formamide, 5% sodium dodecyl sulphate, 0.35 M acetic acid, 50 mM HCl) was added to each well. Following cell lysis, the absorbency was measured at 570 nm and used as an indicator of relative cell survival. The surviving fraction was calculated as compared to the cells without paraquat challenge.
Two experimental groups were created. In the first group, E2 was added only during the 24-hour pretreatment period. In the second group, E2 was added only during the 3-hour paraquat exposure.

The subject of series [2] is antioxidant enzymes (SOD, CAT, GPX, GR) in bAECs. The experiment in a line: Antioxidant enzyme (AOE) activities in cell lysates, all four enzymes together. In kind it is cell-based, bovine. The settings on record: for AOE change, SERM alone: pretreatment with 1 μM alone. On the procedure:
[…] The cells were then lysed on ice by sonication at a setting of 50 mW, with 3×15 set cycles using a Cole-Parmer Ultrasonic Homogenizer (Chicago, Ill.). Protein concentrations in the samples were determined by the Bradford method with bovine serum albumin as a standard (Bradford, Anal. Biochem. 72:248-254, 1976).
SOD activity was determined by a method based on the ability of SOD to suppress epinephrine auto-oxidation (Misra and Fridovich, J.Biol. Chem. 247:3170-3175, 1972). One unit of SOD activity is defined as the amount of protein that inhibits the oxidation of epinephrine by 50%. Briefly, 100 μl of 10×-diluted cell homogenate (about 10 μg protein) was added to 900 μl of carbonate buffer (0.1 M NaHCO3, 0.1 M Na2CO3, 0.1 mM EDTA, pH 10.2) containing 0.7 mM of epinephrine. The absorbency of the mixture was measured for 4 minutes at 480 nm using a Hitachi U-2000 spectrophotometer (Hitachi, San Jose, Calif.).
CAT activity was determined by the method of Aebi (Methods Enzymol. 105:121,-126, 1984). One unit of CAT activity is defined as the amount of protein that degrades 1 μmole of H2O2 per minute. Initially, 10 μl of absolute ethanol was mixed with 100 μl of cell homogenates and pre-incubated at 4° C. for 30 minutes. Following the addition of 10 μl Triton X-100 (reduced form), a 100 μl aliquot (about 100 μg of protein) of the resultant mixture was next added to 500 μl of hydrogen peroxide (66 mM) and 400 μl of phosphate buffer (0.1 M NaH2PO4, 0.1 M Na2HPO4, 0.1 mM EDTA, pH 7.0). The absorbency of the mixture was monitored for one minute at 240 nm spectrophotometrically. The molar extinction coefficient of 43.6 M/cm was used to determine the catalase activity.
GPX activity was determined by a modified method of Flohe and Gunzler (Methods Enzymol. 105:114-121, 1984). One unit of GPX activity is defined as the amount of protein that oxidizes 1 nmole of β-NADPH per minute. In this assay, 100 μl of cell homogenate (about 100 μg protein) was added to 800 μl of phosphate buffer (0.1 M NaH2PO4, 0.1 M Na2HPO4, 0.1 mM EDTA, pH 7.0) containing 12.5 mM glutathione (reduced form, GSH), 0.2 mM β-nicotinamide adenine dinucleotide phosphate (reduced form, β-NADPH), and 0.34 U glutathione reductase. This mixture was pre-incubated at 37 C for 10 minutes and then 100 μl of 12 mM t-butyl hydroperoxide was added. The absorbency of the mixture was determined at 340 nm for 3 minutes. The molar extinction coefficient of 6.22 mM/cm was used to determine the activity of GPX.
GR activity was determined by a modified method of Carlberg and Mannervik (Methods Enzymol. 11 3:484-490, 1985). One unit of GR activity is defined as the amount of protein that oxidizes 1 nmole of β-NADPH per minute. Briefly, 50 μl of 2 mM β-NADPH in 10 mM Tris buffer (pH 7.0) was added to a cuvette containing 50 μl of 20 mM glutathione (oxidized ofrm, GSSG) in phosphate buffer (0.1 M NaH2PO4, 0.1 M Na2HPO4, 0.1 mM EDTA, pH 7.0) and 800 μl of phosphate buffer. Following the addition of cell homogenate (about 100 μg protein/100 μl) the final mixture was measured at 340 nm for 3 minutes. The molar extinction coefficient of 6.22 mM/cm was used to determine the activity of […].

A further series relates to LDL. The settings on record: 5-50 μM; oxidation by copper ions, monocytes, or endothelial cells; cited from earlier work.
The next series relates to cardiomyocytes. The settings on record: cited from earlier work.
For series [3], the system named is endothelial nitric oxide synthase. The settings on record: endothelial cells; cited from earlier work.
The subject of the next series is estrogen receptor. To be noted: cited from earlier work.

In the case of `COc1ccc2c(c1)CCC(c1ccccc1)=C2c1ccc(OCCN2CCCC2)cc1` [nafoxidine], the “protection against subsequent oxidative challenge” value in series [1] is given as “neither positively nor negatively influenced oxidative resistance”.

In the case of `C[n+]1ccc(-c2cc[n+](C)cc2)cc1.[Cl-].[Cl-]` [paraquat, 1,1′-dimethyl-4,4′-bipyridinium dichloride], the “cell killing by paraquat” value in series [1] (exposure of bAECs 3 h at 37 C) is recorded as “dose-dependent cell killing”. In series [1] (male and female bAECs (both genders)), this molecule showed an LD50 of paraquat of 0.1 to 1.0 mM. Besides, the “LD50 of paraquat toxicity” value in series [1] (untreated control cells (no E2)) is listed as “about 0.5 mM”.

As to `C[C@@H]1C[C@@H]([C@H](O)CC2CC(=O)NC(=O)C2)C(=O)[C@@H](C)C1` [cyclohexamide], the “effect on AOE induction by E2” value in series [2] (included during the E2 pretreatment period) is on record as “abolished”.

For the molecule `CC/C(=C(/CC)c1ccc(O)cc1)c1ccc(O)cc1` [diethylstilbestrol], in series [1], the “protection against subsequent oxidative challenge” value is given as “acquired significant protection against subsequent oxidative challenge”.

With `C[C@]12CC[C@@H]3c4ccc(O)cc4CC[C@H]3[C@@H]1C[C@@H](O)[C@@H]2O` [estriol], in the series on LDL, the “effect on LDL oxidation” value is on record as “inhibit LDL oxidation”.

Take `CC/C(=C(\c1ccccc1)c1ccc(OCCN(C)C)cc1)c1ccccc1` [tamoxifen]: in the series on cardiomyocytes, the “effect on E2's protection in cardiomyocytes” value was “abolishes this protective effect”. Also, the “effect on E2's induction of nitric oxide synthase” value in series [3] is on record as “interferes with E2's ability to induce nitric oxide synthase”.

On to `C[C@]12CC[C@H]3[C@@H](CCC4=CC(=O)CC[C@@]43C)[C@@H]1CC[C@@H]2O` [testosterone], for which, in the series on LDL, the “effect on LDL oxidation” value was “has no effect”.

On to 4-hydroxytamoxifen [4-OH-Tam], for which, in series [1], the “protection against subsequent oxidative challenge” value is recorded as “neither positively nor negatively influenced oxidative resistance” and the “protection against paraquat-mediated cytotoxicity, SERM alone” value is “failed to confer detectable protection”. For the same molecule, the “effect on E2-induced oxidative protection” value in series [1] (10 nM-1 μM added simultaneously with 1 nM E2 during pretreatment) was “significantly blocked estrogen-induced oxidative protection”. Further, in series [1] (co-treatment with 1 nM E2, endothelial cells), the “minimal dose to suppress E2 protection” value worked out at 10 nM. Further, the “effect on E2's capability to evoke AOE activities” value in series [2] (1 μM SERM included during 1 nM E2 pretreatment (FIG. 6)) is recorded as “significantly decreased estrogen's capability to evoke AOE activities”. In addition, the “AOE change, SERM alone” value in series [2] was “no detectable change in AOE”.

On to `O=C(c1ccc(OCCN2CCCCC2)cc1)c1c(-c2ccc(O)cc2)sc2cc(O)ccc12` [Ral, raloxifene], for which, in series [1], the “protection against subsequent oxidative challenge” value is on record as “neither positively nor negatively influenced oxidative resistance” and the “protection against paraquat-mediated cytotoxicity, SERM alone” value was “failed to confer detectable protection”. The “effect on E2-induced oxidative protection” value in series [1] (1 μM (highest tested dose) added with 1 nM E2 during pretreatment) is “only a slight inhibitory effect on E2 protection”. Also, the “effect on E2-induced oxidative protection” value in series [1] (1-100 nM added with 1 nM E2 during pretreatment) is “did not affect E2-induced oxidative protection”. Further, the “AOE change, SERM alone” value in series [2] is “no detectable change in AOE”.

In the case of `CCCCN(C)C(=O)CCCCCCCCCC[C@@H]1Cc2cc(O)ccc2[C@H]2CC[C@]3(C)[C@@H](O)CC[C@H]3[C@H]12` [ICI164384], the “effect on the beneficial effect of E2” value with estrogen receptor is recorded as “reverses the beneficial effect of E2”.
